Test results from US12227495B2, “Herbicidal compounds” (SYNGENTA CROP PROTECTION AG, priority 2018, dated 2025).

How the values were obtained:
Assay type in all cases: in vivo
Setaria faberi (SETFA) [1] = assay: Post-emergence herbicide test, glasshouse, percentage damage; conditions: 1000 g/ha, evaluated after 13 days
How it was run: (§1)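 Pot-grown plants were sprayed at 500 g/ha unless otherwise stated, in acetone/water (50:50) with 0.5% Tween 20. Pre-emergence spraying was 1 day after sowing and post-emergence after 8 days, in a glasshouse at 24/16° C, 14 h light, 65% humidity. Percentage damage was scored 13 days later on a 1–5 scale (5=81-100%).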

Lolium perenne (LOLPE) [2] = assay: as above; conditions: 1000 g/ha, evaluated after 13 days
How it was run: as §1

[3] = system: Amaranthus retoflexus (AMARE); assay: as above; conditions: 1000 g/ha, evaluated after 13 days
How it was run: as §1

[4] = system: Echinochloa crus-galli (ECHCG); assay: as above; conditions: 1000 g/ha, evaluated after 13 days
How it was run: as §1

[5] = system: Ipomoea hederacea (IPOHE); assay: as above; conditions: 1000 g/ha, evaluated after 13 days
How it was run: as §1

Solanum nigrum (SOLNI) [6] = assay: as above; conditions: 1000 g/ha, evaluated after 13 days
How it was run: as §1

Setaria faberi (SETFA) [7] = assay: Pre-emergence herbicide test, glasshouse, percentage damage; conditions: rate 1000 g/ha, evaluated after 13 days
How it was run: as §1

Lolium perenne (LOLPE) [8] = assay: as above; conditions: rate 1000 g/ha, evaluated after 13 days
How it was run: as §1

[9] = system: Amaranthus retoflexus (AMARE); assay: as above; conditions: rate 1000 g/ha, evaluated after 13 days
How it was run: as §1

[10] = system: Echinochloa crus-galli (ECHCG); assay: as above; conditions: rate 1000 g/ha, evaluated after 13 days
How it was run: as §1

[11] = system: Ipomoea hederacea (IPOHE); assay: as above; conditions: rate 1000 g/ha, evaluated after 13 days
How it was run: as §1

Solanum nigrum (SOLNI) [12] = assay: as above; conditions: rate 1000 g/ha, evaluated after 13 days
How it was run: as §1

Structure (SMILES) | percentage damage caused to the plant, SETFA (Setaria faberi (SETFA) [1]) | percentage damage caused to the plant, LOLPE (Lolium perenne (LOLPE) [2]) | percentage damage caused to the plant, AMARE [3] | percentage damage caused to the plant, ECHCG [4] | percentage damage caused to the plant, IPOHE [5] | percentage damage caused to the plant, SOLNI (Solanum nigrum (SOLNI) [6]) | Pre-emergence Test SETFA percentage damage (five point scale) (Setaria faberi (SETFA) [7]) | Pre-emergence Test LOLPE percentage damage (five point scale) (Lolium perenne (LOLPE) [8]) | Pre-emergence Test AMARE percentage damage (five point scale) [9] | Pre-emergence Test ECHCG percentage damage (five point scale) [10] | Pre-emergence Test IPOHE percentage damage (five point scale) [11] | Pre-emergence Test SOLNI percentage damage (five point scale) (Solanum nigrum (SOLNI) [12])
O=[N+]([O-])c1ccc(Oc2cccc(Cl)c2-c2cc(C(F)F)no2)nc1 [Compound A108] | 4 (4=61-80%) | 4 (4=61-80%) | 5 (5=81-100%) | 4 (4=61-80%) | 3 (3=41-60%) | 4 (4=61-80%) | 5 (5=81-100%) | 5 (5=81-100%) | 4 (4=61-80%) | 5 (5=81-100%) | 1 (1=0-20%) | 4 (4=61-80%)
FC(F)c1cc(-c2c(Cl)cccc2Oc2ncc(Cl)cc2Cl)on1 [Compound A109] | 5 (5=81-100%) | 3 (3=41-60%) | 5 (5=81-100%) | 4 (4=61-80%) | 4 (4=61-80%) | 5 (5=81-100%) | 4 (4=61-80%) | 2 (2=21-40%) | 4 (4=61-80%) | 2 (2=21-40%) | 1 (1=0-20%) | 3 (3=41-60%)
FC(F)c1cc(-c2c(Cl)cccc2Oc2ccc(C(F)(F)F)cn2)on1 [Compound A110] | 5 (5=81-100%) | 4 (4=61-80%) | 5 (5=81-100%) | 4 (4=61-80%) | 4 (4=61-80%) | 5 (5=81-100%) | 5 (5=81-100%) | 4 (4=61-80%) | 5 (5=81-100%) | 4 (4=61-80%) | 4 (4=61-80%) | 4 (4=61-80%)
Fc1cccc(Oc2cccc(Cl)c2-c2cc(C(F)F)no2)n1 [Compound A111] | 5 (5=81-100%) | 4 (4=61-80%) | 5 (5=81-100%) | 4 (4=61-80%) | 4 (4=61-80%) | 5 (5=81-100%) | 5 (5=81-100%) | 4 (4=61-80%) | 5 (5=81-100%) | 5 (5=81-100%) | 1 (1=0-20%) | 4 (4=61-80%)
FC(F)c1cc(-c2c(Cl)cccc2Oc2cc(C(F)(F)F)ccn2)on1 [Compound A112] | 4 (4=61-80%) | 3 (3=41-60%) | 4 (4=61-80%) | 3 (3=41-60%) | 3 (3=41-60%) | 4 (4=61-80%) | 5 (5=81-100%) | 3 (3=41-60%) | 5 (5=81-100%) | 4 (4=61-80%) | 1 (1=0-20%) | 2 (2=21-40%)
